Measured values taken from patent US20240210412A1, “SULFONYL-TRIAZOLE COMPOUNDS USEFUL AS LIGANDS AND INHIBITORS OF PROSTAGLANDIN REDUCTASE 2” (University of Virginia Patent Foundation, priority 2021, published 2024).

Tests used:
Assay in all cases: SILAC LC-MS ABPP
Assay type in all cases: cell-based
Conditions in all cases: 25 μM 2 h, live DM93 cells
Q9P2B4 = target: T1, Q9P2B4 (Homo sapiens, UniProt Q9P2B4)
T1 construct: endogenous in cells; host or cells: DM93 cells (SILAC)
Procedure, shortened: (§1)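 HHS-475 probe (100 μM, 2 h, 37 °C) was applied after a 2 h pretreatment with either 25 μM SuTEx ligand (heavy DM93 cells) or DMSO (light). Probe-labelled soluble proteins were conjugated to desthiobiotin-azide, combined equally, digested and quantified by LC-MS/MS.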

P06396 = target: T2, P06396 (Homo sapiens, UniProt P06396)
T2 construct: endogenous in cells; host or cells: DM93 cells (SILAC)
Procedure, shortened: as §1

P43490 = target: T3, P43490 (Homo sapiens, UniProt P43490)
T3 construct: endogenous in cells; host or cells: DM93 cells (SILAC)
Procedure, shortened: as §1

P82650 = target: T4, P82650 (Homo sapiens, UniProt P82650)
T4 construct: performing SuTEx compound screening directly in cells; endogenous in cells; host or cells: DM93 cells (SILAC)
Procedure, shortened: as §1

Q9NYF8 = target: T5, Q9NYF8 (Homo sapiens, UniProt Q9NYF8)
T5 construct: endogenous in cells; host or cells: DM93 cells (SILAC)
Procedure, shortened: as §1

Q92900 = target: T6, Q92900 (Homo sapiens, UniProt Q92900)
T6 construct: endogenous in cells; host or cells: DM93 cells (SILAC), live-cell treatment
T6 sequence (Q92900 whole entry): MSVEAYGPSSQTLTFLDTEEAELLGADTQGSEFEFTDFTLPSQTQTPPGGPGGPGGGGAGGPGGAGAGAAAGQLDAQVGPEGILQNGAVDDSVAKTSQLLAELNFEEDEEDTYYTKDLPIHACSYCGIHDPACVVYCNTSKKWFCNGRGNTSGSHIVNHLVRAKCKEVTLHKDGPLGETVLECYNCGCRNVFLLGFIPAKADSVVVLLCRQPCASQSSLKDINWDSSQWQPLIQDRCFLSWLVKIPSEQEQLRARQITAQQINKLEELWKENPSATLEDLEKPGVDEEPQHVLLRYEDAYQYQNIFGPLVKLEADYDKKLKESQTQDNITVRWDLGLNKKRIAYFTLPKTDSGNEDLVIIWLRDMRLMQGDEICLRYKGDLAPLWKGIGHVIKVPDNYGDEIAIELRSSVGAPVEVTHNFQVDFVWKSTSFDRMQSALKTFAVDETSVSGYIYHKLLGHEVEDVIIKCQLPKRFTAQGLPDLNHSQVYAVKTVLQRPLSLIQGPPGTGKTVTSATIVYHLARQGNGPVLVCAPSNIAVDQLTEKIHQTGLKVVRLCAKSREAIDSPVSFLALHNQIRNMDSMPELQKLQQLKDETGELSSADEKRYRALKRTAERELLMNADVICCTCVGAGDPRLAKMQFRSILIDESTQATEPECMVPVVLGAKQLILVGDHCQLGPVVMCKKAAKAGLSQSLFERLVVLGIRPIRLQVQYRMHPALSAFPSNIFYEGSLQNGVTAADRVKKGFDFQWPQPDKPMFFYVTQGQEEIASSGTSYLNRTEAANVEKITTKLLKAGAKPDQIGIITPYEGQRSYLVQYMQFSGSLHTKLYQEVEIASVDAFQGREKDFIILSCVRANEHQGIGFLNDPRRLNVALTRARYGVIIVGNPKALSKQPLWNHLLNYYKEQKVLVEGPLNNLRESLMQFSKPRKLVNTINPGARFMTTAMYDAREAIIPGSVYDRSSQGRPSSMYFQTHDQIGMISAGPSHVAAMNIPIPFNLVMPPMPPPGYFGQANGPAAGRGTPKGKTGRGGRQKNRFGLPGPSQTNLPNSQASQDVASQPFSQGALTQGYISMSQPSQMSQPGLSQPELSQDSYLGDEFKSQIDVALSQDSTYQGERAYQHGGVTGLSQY
Procedure, shortened: as §1

O00232 = target: T7, O00232 (Homo sapiens, UniProt O00232)
T7 construct: endogenous in cells; host or cells: DM93
Procedure, shortened: as §1

P28482 = target: T8, P28482 (Homo sapiens, UniProt P28482)
T8 construct: endogenous in cells; host or cells: DM93 (SILAC)
Procedure, shortened: as §1

O43156 = target: T9, O43156 (Homo sapiens, UniProt O43156)
T9 construct: endogenous in cells; host or cells: DM93
T9 sequence (O43156 whole entry): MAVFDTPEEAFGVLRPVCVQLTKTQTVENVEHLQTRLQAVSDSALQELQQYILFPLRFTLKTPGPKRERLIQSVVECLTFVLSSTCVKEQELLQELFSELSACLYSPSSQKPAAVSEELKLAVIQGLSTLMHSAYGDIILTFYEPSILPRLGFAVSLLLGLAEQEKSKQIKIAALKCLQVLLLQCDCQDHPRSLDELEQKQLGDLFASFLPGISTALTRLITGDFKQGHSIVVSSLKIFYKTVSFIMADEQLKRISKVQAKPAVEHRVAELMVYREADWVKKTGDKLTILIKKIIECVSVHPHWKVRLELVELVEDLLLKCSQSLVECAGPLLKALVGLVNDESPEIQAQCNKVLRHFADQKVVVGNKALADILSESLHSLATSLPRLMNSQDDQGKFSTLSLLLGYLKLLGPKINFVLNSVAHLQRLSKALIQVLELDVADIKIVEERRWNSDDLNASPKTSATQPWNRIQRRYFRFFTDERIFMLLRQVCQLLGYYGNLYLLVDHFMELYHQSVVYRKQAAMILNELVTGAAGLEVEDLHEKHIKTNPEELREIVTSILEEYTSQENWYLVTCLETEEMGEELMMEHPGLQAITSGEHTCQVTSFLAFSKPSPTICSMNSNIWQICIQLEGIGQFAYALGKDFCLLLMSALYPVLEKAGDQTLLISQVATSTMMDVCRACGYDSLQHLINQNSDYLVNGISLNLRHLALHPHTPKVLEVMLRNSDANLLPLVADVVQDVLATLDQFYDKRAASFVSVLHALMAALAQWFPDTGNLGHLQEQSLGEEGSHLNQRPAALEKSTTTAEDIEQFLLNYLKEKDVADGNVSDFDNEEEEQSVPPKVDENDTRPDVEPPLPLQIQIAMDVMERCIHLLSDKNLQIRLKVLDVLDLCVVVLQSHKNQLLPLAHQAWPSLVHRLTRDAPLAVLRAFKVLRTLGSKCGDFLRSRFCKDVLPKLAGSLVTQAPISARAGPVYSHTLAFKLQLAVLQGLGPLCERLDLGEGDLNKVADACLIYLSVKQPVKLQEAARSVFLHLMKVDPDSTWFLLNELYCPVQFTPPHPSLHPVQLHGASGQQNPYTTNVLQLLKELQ
Procedure, shortened: as §1

Q13057 = target: T10, Q13057 (Homo sapiens, UniProt Q13057)
T10 construct: performing SuTEx compound screening directly in cells; endogenous in cells; host or cells: DM93 cells (SILAC), soluble fraction
T10 sequence (Q13057 whole entry): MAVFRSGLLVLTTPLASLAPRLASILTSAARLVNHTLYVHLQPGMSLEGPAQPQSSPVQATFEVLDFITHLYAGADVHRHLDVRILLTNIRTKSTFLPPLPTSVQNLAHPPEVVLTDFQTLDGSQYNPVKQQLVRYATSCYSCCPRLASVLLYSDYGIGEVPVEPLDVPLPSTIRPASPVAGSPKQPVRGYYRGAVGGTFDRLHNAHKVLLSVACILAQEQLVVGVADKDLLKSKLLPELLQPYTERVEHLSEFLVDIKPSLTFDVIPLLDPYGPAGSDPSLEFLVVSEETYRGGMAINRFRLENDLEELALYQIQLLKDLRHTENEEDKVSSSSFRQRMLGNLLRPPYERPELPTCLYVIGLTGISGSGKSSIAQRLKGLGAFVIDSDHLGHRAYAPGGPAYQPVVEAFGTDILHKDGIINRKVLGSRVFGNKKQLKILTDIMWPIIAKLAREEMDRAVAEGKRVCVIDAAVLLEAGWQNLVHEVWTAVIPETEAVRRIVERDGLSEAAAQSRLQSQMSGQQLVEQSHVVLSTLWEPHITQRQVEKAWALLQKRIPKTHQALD
Procedure, shortened: as §1

P06132 = target: T11, P06132 (Homo sapiens, UniProt P06132)
T11 construct: endogenous in cells; host or cells: DM93 cells (SILAC)
T11 sequence (P06132 whole entry): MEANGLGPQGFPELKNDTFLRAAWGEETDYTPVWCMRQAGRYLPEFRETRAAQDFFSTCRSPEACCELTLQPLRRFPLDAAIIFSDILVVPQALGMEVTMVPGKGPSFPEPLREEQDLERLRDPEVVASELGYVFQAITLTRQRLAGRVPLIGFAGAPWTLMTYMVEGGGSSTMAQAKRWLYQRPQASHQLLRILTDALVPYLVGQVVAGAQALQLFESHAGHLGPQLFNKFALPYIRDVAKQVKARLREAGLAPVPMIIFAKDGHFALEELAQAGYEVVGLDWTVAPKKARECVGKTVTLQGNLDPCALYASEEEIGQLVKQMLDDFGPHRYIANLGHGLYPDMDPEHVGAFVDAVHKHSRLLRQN
Procedure, shortened: as §1

P05455 = target: T12, P05455 (Homo sapiens, UniProt P05455)
T12 construct: endogenous in cells; host or cells: DM93 cells (SILAC)
Procedure, shortened: as §1

P62979 = target: T13, P62979 (Homo sapiens, UniProt P62979)
T13 construct: performing SuTEx compound screening directly in cells; endogenous in cells; host or cells: DM93 cells (SILAC)
Procedure, shortened: as §1

O95453 = target: T14, O95453 (Homo sapiens, UniProt O95453)
T14 construct: endogenous in cells; host or cells: DM93 cells (SILAC)
Procedure, shortened: as §1

O00571 = target: T15, O00571 (Homo sapiens, UniProt O00571)
T15 construct: endogenous in cells; host or cells: DM93
Procedure, shortened: as §1

P62993 = target: T16, P62993 (Homo sapiens, UniProt P62993)
T16 construct: performing SuTEx compound screening directly in cells; endogenous in cells; host or cells: DM93 cells (SILAC)
Procedure, shortened: as §1

Q00341 = target: T17, Q00341 (Homo sapiens, UniProt Q00341)
T17 construct: performing SuTEx compound screening directly in cells; endogenous in cells; host or cells: DM93 cells (SILAC)
T17 sequence (Q00341 whole entry): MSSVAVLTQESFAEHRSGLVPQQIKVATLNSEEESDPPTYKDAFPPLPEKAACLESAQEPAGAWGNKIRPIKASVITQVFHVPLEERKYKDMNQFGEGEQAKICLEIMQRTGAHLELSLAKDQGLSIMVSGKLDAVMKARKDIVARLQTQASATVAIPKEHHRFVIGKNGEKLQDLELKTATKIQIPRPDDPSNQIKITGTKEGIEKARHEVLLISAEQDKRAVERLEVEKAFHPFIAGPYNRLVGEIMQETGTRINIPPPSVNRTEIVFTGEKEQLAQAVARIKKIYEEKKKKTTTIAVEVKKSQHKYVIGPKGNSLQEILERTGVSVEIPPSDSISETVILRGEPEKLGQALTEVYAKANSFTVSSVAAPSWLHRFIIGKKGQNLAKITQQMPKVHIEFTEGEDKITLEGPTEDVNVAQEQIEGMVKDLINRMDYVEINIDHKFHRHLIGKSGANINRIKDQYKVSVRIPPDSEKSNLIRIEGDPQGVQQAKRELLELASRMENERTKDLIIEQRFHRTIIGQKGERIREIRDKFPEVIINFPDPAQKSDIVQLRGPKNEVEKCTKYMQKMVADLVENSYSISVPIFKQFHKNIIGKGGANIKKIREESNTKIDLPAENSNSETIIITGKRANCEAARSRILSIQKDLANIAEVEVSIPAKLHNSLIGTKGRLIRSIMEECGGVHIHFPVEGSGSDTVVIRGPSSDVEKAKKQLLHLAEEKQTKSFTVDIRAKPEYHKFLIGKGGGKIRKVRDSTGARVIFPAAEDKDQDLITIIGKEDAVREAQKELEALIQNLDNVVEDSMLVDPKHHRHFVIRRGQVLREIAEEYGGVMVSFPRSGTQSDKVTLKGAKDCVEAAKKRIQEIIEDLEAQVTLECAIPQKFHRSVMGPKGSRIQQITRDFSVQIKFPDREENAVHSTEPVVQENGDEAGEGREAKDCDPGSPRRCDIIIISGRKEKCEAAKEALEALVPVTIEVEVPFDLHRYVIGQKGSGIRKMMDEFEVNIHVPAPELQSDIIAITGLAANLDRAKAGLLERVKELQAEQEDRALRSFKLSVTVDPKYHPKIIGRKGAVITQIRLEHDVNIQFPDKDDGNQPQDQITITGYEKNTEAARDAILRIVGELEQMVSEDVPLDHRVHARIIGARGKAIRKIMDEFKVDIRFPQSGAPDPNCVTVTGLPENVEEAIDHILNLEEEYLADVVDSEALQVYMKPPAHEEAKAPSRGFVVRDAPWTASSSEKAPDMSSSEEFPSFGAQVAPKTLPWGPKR
Procedure, shortened: as §1

O43660 = target: T18, O43660 (Homo sapiens, UniProt O43660)
T18 construct: endogenous in cells; host or cells: DM93
Procedure, shortened: as §1

T1 sequence (Q9P2B4 whole entry): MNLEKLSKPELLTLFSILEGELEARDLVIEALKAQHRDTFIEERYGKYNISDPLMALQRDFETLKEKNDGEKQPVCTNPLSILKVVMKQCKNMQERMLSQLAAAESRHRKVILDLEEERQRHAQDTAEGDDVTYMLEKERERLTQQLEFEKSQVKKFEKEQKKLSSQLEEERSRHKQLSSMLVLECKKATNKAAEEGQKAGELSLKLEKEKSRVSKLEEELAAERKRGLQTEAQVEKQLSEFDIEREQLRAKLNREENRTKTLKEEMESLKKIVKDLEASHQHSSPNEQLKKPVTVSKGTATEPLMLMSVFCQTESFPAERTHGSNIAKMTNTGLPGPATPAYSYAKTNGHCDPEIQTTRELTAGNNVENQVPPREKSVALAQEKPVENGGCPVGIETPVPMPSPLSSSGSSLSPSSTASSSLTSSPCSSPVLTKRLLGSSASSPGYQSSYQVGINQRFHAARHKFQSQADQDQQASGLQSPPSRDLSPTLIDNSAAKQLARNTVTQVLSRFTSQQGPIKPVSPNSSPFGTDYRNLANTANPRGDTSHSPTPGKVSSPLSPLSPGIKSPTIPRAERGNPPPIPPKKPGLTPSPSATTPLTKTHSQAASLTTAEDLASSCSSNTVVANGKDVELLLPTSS

With `O=C(c1ccc(S(=O)(=O)n2cncn2)cc1)N1CCC(c2ccccc2)CC1` [HHS-0701, (4-((1H-1,2,4-triazol-1-yl)sulfonyl)phenyl)(4-phenylpiperidin-1-yl)methanone] the “liganded tyrosine site 343” value (Q9P2B4) was “HHS0701.Y (tyrosine sites that showed >80% reductions (SR >5) in probe labeling in cells treated with compounds (liganded sites))”, the “liganded tyrosine site 469” value (P06396) was “HHS0701.Y (tyrosine sites that showed >80% reductions (SR >5) in probe labeling in cells treated with compounds (liganded sites))” and the “liganded tyrosine site 188” value (P43490) was “HHS0701.Y (tyrosine sites that showed >80% reductions (SR >5) in probe labeling in cells treated with compounds (liganded sites))”. For the same compound, the “liganded tyrosine site 163” value (P82650) was “HHS0701.Y (tyrosine sites that showed >80% reductions (SR >5) in probe labeling in cells treated with compounds (liganded sites))”.
For `O=C(NC1CC1)c1ccc(S(=O)(=O)n2cncn2)cc1` [HHS-0101, 4-((1H-1,2,4-triazol-1-yl)sulfonyl)-N-cyclopropylbenzamide], the “liganded tyrosine site 322” value (Q9NYF8) was “HHS0101.Y|HHS0201.Y|HHS0301.Y|HHS0401.Y (tyrosine sites that showed >80% reductions (SR >5) in probe labeling in cells treated with compounds (liganded sites))”, the “liganded tyrosine site 518” value (Q92900) was “HHS0101.Y|HHS0201.Y|HHS0401.Y|HHS0701.Y (tyrosine sites that showed >80% reductions (SR >5) in probe labeling in cells treated with compounds (liganded sites))” and the “liganded tyrosine site 946” value (Q92900) was “HHS0101.Y (tyrosine sites that showed >80% reductions (SR >5) in probe labeling in cells treated with compounds (liganded sites))”. For the same compound, the “liganded tyrosine site 20” value (O00232) was “HHS0101.Y|HHS0301.Y|HHS0401.Y|HHS0701.Y (tyrosine sites that showed >80% reductions (SR >5) in probe labeling in cells treated with compounds (liganded sites))”, the “liganded tyrosine site 113” value (P28482) was “HHS0101.Y (tyrosine sites that showed >80% reductions (SR >5) in probe labeling in cells treated with compounds (liganded sites))” and the “liganded tyrosine site 51” value (O43156) was “HHS0101.Y|HHS0401.Y|HHS0701.Y (tyrosine sites that showed >80% reductions (SR >5) in probe labeling in cells treated with compounds (liganded sites))”.
In the case of `O=C(NC1CCCCC1)c1ccc(S(=O)(=O)n2cncn2)cc1` [HHS-0301, 4-((1H-1,2,4-triazol-1-yl)sulfonyl)-N-cyclohexylbenzamide], the “liganded tyrosine site 126” value (Q13057) is reported as “HHS0301.Y (tyrosine sites that showed >80% reductions (SR >5) in probe labeling in cells treated with compounds (liganded sites))”.
In the case of `O=C(NCc1ccccc1)c1ccc(S(=O)(=O)n2cncn2)cc1` [HHS-0401, 4-((1H-1,2,4-triazol-1-yl)sulfonyl)-N-benzylbenzamide], the “liganded tyrosine site 164” value (P06132) is reported as “HHS0401.Y (tyrosine sites that showed >80% reductions (SR >5) in probe labeling in cells treated with compounds (liganded sites))”, the “liganded tyrosine site 188” value (P05455) is reported as “HHS0401.Y (tyrosine sites that showed >80% reductions (SR >5) in probe labeling in cells treated with compounds (liganded sites))” and the “liganded tyrosine site 148” value (P62979) is reported as “HHS0401.Y (tyrosine sites that showed >80% reductions (SR >5) in probe labeling in cells treated with compounds (liganded sites))”. For the same compound, the “liganded tyrosine site 161” value (O95453) was “HHS0401.Y (tyrosine sites that showed >80% reductions (SR >5) in probe labeling in cells treated with compounds (liganded sites))” and the “liganded tyrosine site 266” value (O00571) was “HHS0401.Y (tyrosine sites that showed >80% reductions (SR >5) in probe labeling in cells treated with compounds (liganded sites))”.
With `O=C(NCC1CC1)c1ccc(S(=O)(=O)n2cncn2)cc1` [HHS-0201, 4-((1H-1,2,4-triazol-1-yl)sulfonyl)-N-(cyclopropylmethyl)benzamide] the “liganded tyrosine site 160” value (P62993) was “HHS0201.Y (tyrosine sites that showed >80% reductions (SR >5) in probe labeling in cells treated with compounds (liganded sites))”, the “liganded tyrosine site 582” value (Q00341) was “HHS0201.Y (tyrosine sites that showed >80% reductions (SR >5) in probe labeling in cells treated with compounds (liganded sites))” and the “liganded tyrosine site 82” value (O43660) was “HHS0201.Y (tyrosine sites that showed >80% reductions (SR >5) in probe labeling in cells treated with compounds (liganded sites))”.
